This is an account of results in US20260193239A1, “NOVEL COMPOUNDS” (Hoffmann-La Roche Inc., priority 2023, published 2026).

The structures appear in SMILES notation. Some results are limits rather than exact numbers.

In series [1] the target is T1, NLRP3 (Homo sapiens, UniProt Q96P20). Nature of the series: THP-1 cells pyroptosis assay. The class given is cell-based. On the set-up: Seed THP-1 cells (25,000 cells/well) containing 1.0 μg/ml LPS; host or cells: THP-1 cells, LPS-primed and nigericin-stimulated. As to conditions: 1 μg/ml LPS, nigericin 5 μM, resazurin readout. As to the method: The cells were routinely passaged and grown to confluency (~10^6 cells/ml). On the day of the experiment, THP-1 cells were harvested and resuspended into RPMI medium (without FBS). […] To this diluted cell solution was added LPS (Sigma #L4524) to give a 1 μg/ml Final Assay Concentration (FAC). 40 μl of the final preparation was aliquoted into each well of a 96-well plate. The plate thus prepared was used for compound screening.
T1 sequence (Q96P20 whole entry): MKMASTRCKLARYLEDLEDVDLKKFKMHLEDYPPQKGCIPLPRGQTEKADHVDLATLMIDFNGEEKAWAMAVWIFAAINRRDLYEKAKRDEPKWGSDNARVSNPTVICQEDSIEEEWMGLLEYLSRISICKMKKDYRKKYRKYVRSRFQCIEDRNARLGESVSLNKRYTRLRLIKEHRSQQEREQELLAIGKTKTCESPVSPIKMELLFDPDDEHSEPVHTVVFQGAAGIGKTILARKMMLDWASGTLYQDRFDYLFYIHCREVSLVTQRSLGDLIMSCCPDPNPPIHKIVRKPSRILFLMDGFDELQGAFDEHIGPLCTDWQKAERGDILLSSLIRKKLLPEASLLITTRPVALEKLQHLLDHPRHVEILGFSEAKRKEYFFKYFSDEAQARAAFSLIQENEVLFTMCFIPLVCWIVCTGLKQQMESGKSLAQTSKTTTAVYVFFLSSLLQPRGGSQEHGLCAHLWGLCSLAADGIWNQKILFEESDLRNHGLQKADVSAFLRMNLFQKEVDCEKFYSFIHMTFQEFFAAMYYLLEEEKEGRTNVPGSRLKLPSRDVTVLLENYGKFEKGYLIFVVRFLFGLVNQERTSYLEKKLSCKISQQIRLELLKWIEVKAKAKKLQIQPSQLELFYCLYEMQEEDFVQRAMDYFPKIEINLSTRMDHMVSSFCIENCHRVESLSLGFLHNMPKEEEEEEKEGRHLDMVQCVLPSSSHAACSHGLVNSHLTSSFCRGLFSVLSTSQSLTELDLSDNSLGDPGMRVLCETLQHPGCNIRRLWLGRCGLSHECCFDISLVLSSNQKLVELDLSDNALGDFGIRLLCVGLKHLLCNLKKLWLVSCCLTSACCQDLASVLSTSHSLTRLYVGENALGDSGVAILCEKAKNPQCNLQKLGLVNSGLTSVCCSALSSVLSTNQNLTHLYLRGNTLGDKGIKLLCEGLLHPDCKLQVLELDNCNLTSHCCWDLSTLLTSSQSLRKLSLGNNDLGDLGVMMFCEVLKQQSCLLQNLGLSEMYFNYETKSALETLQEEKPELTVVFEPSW
(Alamar Blue is a resazurin reagent that responds to reducing activity.)

A further series addresses T2, P-gp (Homo sapiens, UniProt P08183).
T2 construct: expressed in transfected cells; host or cells: LLC-PK1 cells (porcine kidney epithelial cells)
Nature of the series: Transcellular P-gp assay. The series is classed as in vitro ADME. As to conditions: LLC-PK1 cells over-expressing human P-gp; for Papp: read-out: Permeation. An excerpt: The general assay uses transfected LLC-PK1 cells (porcine kidney epithelial cells) over-expressing human or mouse P-gp, cultured on 96 well semi-permeable filter membrane plates, where they form a polarized monolayer with tight junctions, and act as a barrier between the apical and basolateral compartment.
P-gp is expressed in the apical-facing membrane of the monolayer.
The tightness of the cell monolayer and functional activity of P-gp are confirmed by addition of a cell-impermeable marker, Lucifer yellow, and a reference P-gp substrate, edoxaban, respectively.

Series [2] addresses T1, NLRP3. The series is described as follows: Human whole blood IL-1β release assay. The note with it: 1 μg/ml LPS, nigericin 10 μM, IL-1β by AlphaLisa. The class given is cell-based. Also noted: Human whole blood in Li-heparin tubes was obtained from healthy donors; from tissue; host or cells: human whole blood from healthy donors, LPS-primed and nigericin-stimulated. An excerpt:
For systemic delivery, the ability to inhibit NLRP3 when the compounds are present within the bloodstream is of great importance. For this reason, the NLRP3 inhibitory activity of a number of compounds in human whole blood was investigated in accordance with the following protocol.
Human whole blood in Li-heparin tubes was obtained from healthy donors from a volunteer donor panel.

T2 sequence (P08183 whole entry): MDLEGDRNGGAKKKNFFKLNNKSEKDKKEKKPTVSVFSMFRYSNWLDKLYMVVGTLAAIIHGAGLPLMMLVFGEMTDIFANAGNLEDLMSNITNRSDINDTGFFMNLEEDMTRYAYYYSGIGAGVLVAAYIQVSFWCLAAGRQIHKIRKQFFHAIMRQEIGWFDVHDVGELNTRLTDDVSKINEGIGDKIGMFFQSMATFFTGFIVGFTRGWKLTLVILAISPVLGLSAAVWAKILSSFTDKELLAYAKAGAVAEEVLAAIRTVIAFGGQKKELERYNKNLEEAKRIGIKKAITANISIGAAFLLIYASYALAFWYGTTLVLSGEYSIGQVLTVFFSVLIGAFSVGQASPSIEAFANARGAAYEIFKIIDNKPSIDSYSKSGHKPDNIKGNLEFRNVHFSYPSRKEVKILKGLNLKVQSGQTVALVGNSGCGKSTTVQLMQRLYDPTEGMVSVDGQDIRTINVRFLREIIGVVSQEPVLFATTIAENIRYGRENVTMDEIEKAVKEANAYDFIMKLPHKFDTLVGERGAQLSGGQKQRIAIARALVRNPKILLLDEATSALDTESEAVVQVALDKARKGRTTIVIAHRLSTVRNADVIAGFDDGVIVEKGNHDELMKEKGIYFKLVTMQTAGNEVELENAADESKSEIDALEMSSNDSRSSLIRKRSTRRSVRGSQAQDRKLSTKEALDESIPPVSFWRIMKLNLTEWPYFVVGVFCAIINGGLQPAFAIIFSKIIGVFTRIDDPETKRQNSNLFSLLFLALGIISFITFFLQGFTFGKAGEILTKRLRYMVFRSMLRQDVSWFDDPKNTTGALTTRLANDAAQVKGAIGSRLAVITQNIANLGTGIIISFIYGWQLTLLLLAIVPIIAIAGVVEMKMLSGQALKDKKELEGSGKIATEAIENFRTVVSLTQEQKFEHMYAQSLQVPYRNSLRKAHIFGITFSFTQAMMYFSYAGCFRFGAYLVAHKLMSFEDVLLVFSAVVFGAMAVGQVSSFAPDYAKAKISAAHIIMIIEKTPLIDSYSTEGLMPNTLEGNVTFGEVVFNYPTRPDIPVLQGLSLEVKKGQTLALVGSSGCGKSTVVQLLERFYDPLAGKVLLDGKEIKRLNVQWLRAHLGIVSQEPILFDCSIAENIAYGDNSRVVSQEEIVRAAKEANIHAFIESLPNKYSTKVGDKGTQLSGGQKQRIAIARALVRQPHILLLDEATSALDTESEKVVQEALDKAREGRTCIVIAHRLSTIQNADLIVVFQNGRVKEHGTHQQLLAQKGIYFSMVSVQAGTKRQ

By IC50 is commonly meant the concentration at which inhibition is half-maximal. Compound `CCN1CCC[C@@H](Nc2nnc(-c3c(COC)cc4c(c3O)CCO4)n(C)c2=O)C1` (single isomer, unassigned) [Example 6a, (M or P)-3-[4-Hydroxy-6-(methoxymethyl)-2,3-dihydrobenzofuran-5-yl]-4-methyl-6-[[(3R)-1-ethyl-3-piperidyl]amino]-1,2,4-triazin-5-one] gave an IC50 on NLRP3 [1] of over 1000 nM.

One may read the efflux ratio as the permeability from basolateral to apical divided by that in the opposite direction, in the common usage. On to `CCN1CCC[C@@H](Nc2nnc(-c3c(C)cc(C(F)(F)F)cc3O)n(C)c2=O)C1` (atropisomer, axis not shown) [Reference Example RE-B, 6-[[(3R)-1-Ethyl-3-piperidyl]amino]-3-[2-hydroxy-6-methyl-4-(trifluoromethyl)phenyl]-4-methyl-1,2,4-triazin-5-one, reference compound], for which, on P-gp, the efflux ratio was 7.6 and the Papp was 5.6 ×10⁻⁶ cm/s.

For the compound `CCN1CCC[C@@H](Nc2nnc(-c3c(CO)cc4c(c3O)CCO4)n(C)c2=O)C1` (atropisomer, axis not shown) [Example 5, 3-[4-Hydroxy-6-(hydroxymethyl)-2,3-dihydrobenzofuran-5-yl]-4-methyl-6-[[(3R)-1-ethyl-3-piperidyl]amino]-1,2,4-triazin-5-one], the IC50 against NLRP3 [1] stood at 139 nM.

Turning to `CCc1cc2c(c(O)c1-c1nnc(N[C@@H]3CCCN(CC)C3)c(=O)n1C)CCO2` (single isomer, unassigned) [Example 1b], on P-gp, the efflux ratio was 11 and the Papp was 4.5 ×10⁻⁶ cm/s.

Regarding `CCN1CCC[C@@H](Nc2nnc(-c3c(CO)cc4c(c3O)CCO4)n(C)c2=O)C1` (single isomer, unassigned) [Example 5b, (P or M)-3-[4-Hydroxy-6-(hydroxymethyl)-2,3-dihydrobenzofuran-5-yl]-4-methyl-6-[[(3R)-1-ethyl-3-piperidyl]amino]-1,2,4-triazin-5-one], at NLRP3 [1], inhibition was half-maximal at 966 nM (IC50).

On to `CCN1CCC[C@@H](Nc2nnc(-c3c(CO)cc4c(c3O)CCO4)n(C)c2=O)C1` (atropisomer, axis not shown) [Example 5a, (M or P)-3-[4-Hydroxy-6-(hydroxymethyl)-2,3-dihydrobenzofuran-5-yl]-4-methyl-6-[[(3R)-1-ethyl-3-piperidyl]amino]-1,2,4-triazin-5-one], for which the figures for the IC50 at NLRP3 [2] and at NLRP3 [1] were 103 nM and 84 nM, respectively.

Turning to `CCc1cc2c(c(O)c1-c1nnc(N[C@@H]3CCCN(CCO)C3)c(=O)n1C)CCO2` (atropisomer, axis not shown) [Example 8b, P-3-(6-ethyl-4-hydroxy-2,3-dihydrobenzofuran-5-yl)-6-[[(3R)-1-(2-hydroxyethyl)-3-piperidyl]amino]-4-methyl-1,2,4-triazin-5-one], the IC50 on NLRP3 [2] turned out to be 64 nM. Besides, on NLRP3 [1], 16 nM corresponded to half-maximal inhibition (IC50). At P-gp, the efflux ratio worked out at 1 and the Papp came out at 0.9 ×10⁻⁶ cm/s.

Compound `CCN1CCC[C@@H](Nc2nnc(-c3c(COC)cc4c(c3O)CCO4)n(C)c2=O)C1` (single isomer, unassigned) [Example 6b] had a half-maximal inhibitory concentration (IC50) against NLRP3 [2] of 29 nM. At NLRP3 [1], this compound registered a concentration for half-maximal inhibition (IC50) of 15 nM. In addition, at P-gp, the efflux ratio worked out at 1 and the Papp was 1.1 ×10⁻⁶ cm/s.

As for `CCN1CCCC(Nc2nnc(-c3c(COC)cc4c(c3O)CCC4)n(C)c2=O)C1` [Example 7b, P-6-[[(3R)-1-ethyl-3-piperidyl]amino]-3-[4-hydroxy-6-(methoxymethyl)indan-5-yl]-4-methyl-1,2,4-triazin-5-one], at P-gp, the efflux ratio was 12 and the Papp was determined as 5.1 ×10⁻⁶ cm/s.

Regarding `CCN1CCC[C@@H](Nc2nnc(-c3ccc4c(c3O)CCO4)n(C)c2=O)C1` [Reference Example RE-A, 6-[[(3R)-1-Ethyl-3-piperidyl]amino]-3-(4-hydroxy-2,3-dihydrobenzofuran-5-yl)-4-methyl-1,2,4-triazin-5-one, reference compound], the Permeation at P-gp was found to be 24.9 ×10⁻⁶ cm/s.

`CCn1c(-c2c(C)cc3c(c2O)CCO3)nnc(N[C@@H]2CCCN(CCO)C2)c1=O` (atropisomer, axis not shown) [Example 9b, (P or M)-4-ethyl-6-[[(3R)-1-(2-hydroxyethyl)-3-piperidyl]amino]-3-(4-hydroxy-6-methyl-2,3-dihydrobenzofuran-5-yl)-1,2,4-triazin-5-one] yielded an IC50 against NLRP3 [2] of 204 nM. Further, at NLRP3 [1], it took 118 nM to reach half-maximal inhibition (IC50). For the same compound, at P-gp, the efflux ratio came out at 2 and the Papp is 0.8 ×10⁻⁶ cm/s.

Turning to `CCN1CCC[C@@H](Nc2nnc(-c3c(C)cc4c(c3O)CCO4)n(CC)c2=O)C1` (atropisomer, axis not shown) [Example 2b, P-4-ethyl-6-[[(3R)-1-ethyl-3-piperidyl]amino]-3-(4-hydroxy-6-methyl-2,3-dihydrobenzofuran-5-yl)-1,2,4-triazin-5-one], at P-gp, the efflux ratio is 8 and the Papp came out at 3.7 ×10⁻⁶ cm/s.

Consider `CCN1CCC[C@@H](Nc2nnc(-c3c(C)cc4c(c3O)CCO4)n(C)c2=O)C1` (single isomer, unassigned) [Example 3b], for which, at P-gp, the efflux ratio was found to be 10 and the Papp was 5.3 ×10⁻⁶ cm/s.
